The results in this text go back to the supplement of paper PMC11208160.
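Note: IS621 bridge recombinase in Escherichia coli cells against a fixed T5 target plasmid.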

The series can be described thus: recombinant UMI read abundance after kanamycin selection (control-corrected) (log10(CPM+1)); higher = more efficient recombination; extreme values may be limits of the assay; sequences stand for … in AGTGCAGAGAAAATCGGCCAGTTTTCTCTGCCTGCAGTCCGCATGCCGTGGGACCCCTTGGGTTCTAACCTGTTGCCTAGATTTATGCAGCGGACTGCCTTTCTCCCAAAGTGATAAACCGG…AGGTTGGTTTCACT; site = the 11-nt donor. The procedure, abridged:
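Sequenced counts of recombinant UMIs were turned into CPM, averaged across replicates and scaled with control-derived factors. The reported figure is log10(CPM+1). Those UMIs, each 12 nt long, tagged donor and donor-binding-loop pairs on a plasmid with a promoterless kanamycin gene, screened as a pool in Escherichia coli with IPTG (0.07 mM) plus kanamycin or without selection.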
For “GTTGATGCATGGACCGGTTTTCCCGGTAATCCGTATTTGAC (site GTTGATGCTGT)”, the “recombinant UMI read abundance (log10)” value came out at 2.12.

On to “GTTGCGTCATGGACCGGTTTTCCCGGTAATCCGTATTTGGC (site GTTGCGTCTGC)”, for which the “recombinant UMI read abundance (log10)” value is 2.41.

“GTTGCGTCATGGACCGGTTTTCCCGGTAATCCGTATTTGGT (site GTTGCGTCTAC)”: the “recombinant UMI read abundance (log10)” value turned out to be 0.923.

For “GTTGTATCATGGACCGGTTTTCCCGGTAATCCGTATTTGAC (site CTAGTATCTGT)”, the “recombinant UMI read abundance (log10)” value came to 1.45.

As to “GTTGTATCATGGACCGGTTTTCCCGGTAATCCGTATTTGAC (site GTTGTATCTGT)”, the “recombinant UMI read abundance (log10)” value is 2.18.

For “GTTGTCCCATGGACCGGTTTTCCCGGTAATCCGTATTTGGT (site GTTGTACCTAC)”, the “recombinant UMI read abundance (log10)” value is 0.00965.

On to “GTTGTCCCATGGACCGGTTTTCCCGGTAATCCGTATTTGGT (site GTTGTCCCTAC)”, for which the “recombinant UMI read abundance (log10)” value worked out at 0.0143.

For “GTTGTCCCATGGACCGGTTTTCCCGGTAATCCGTATTTGGT (site GTTGTGCCTAC)”, the “recombinant UMI read abundance (log10)” value worked out at 0.0145.

For the sequence “GTTGTCCCATGGACCGGTTTTCCCGGTAATCCGTATTTGGT (site GTTGTTCCTAC)”, the “recombinant UMI read abundance (log10)” value is 0.

“GTTGTCGCATGGACCGGTTTTCCCGGTAATCCGTATTTGCG (site GTAGTCGCTCG)”: the “recombinant UMI read abundance (log10)” value came out at 0.0153.

As to “GTTGTCGCATGGACCGGTTTTCCCGGTAATCCGTATTTGCG (site GTCGTCGCTCG)”, the “recombinant UMI read abundance (log10)” value was found to be 0.00886.

Take “GTTGTCGCATGGACCGGTTTTCCCGGTAATCCGTATTTGCG (site GTGGTCGCTCG)”: the “recombinant UMI read abundance (log10)” value stood at 0.009.

With “GTTGTCGCATGGACCGGTTTTCCCGGTAATCCGTATTTGCG (site GTTGTCGCTCG)”, the “recombinant UMI read abundance (log10)” value was found to be 0.974.

Turning to “GTTGTTACATGGACCGGTTTTCCCGGTAATCCGTATTTGGT (site GTTGTTACTAC)”, the “recombinant UMI read abundance (log10)” value is 1.07.

Take “GTTGTTACATGGACCGGTTTTCCCGGTAATCCGTATTTGGT (site GTTGTTCCTAC)”: the “recombinant UMI read abundance (log10)” value was 0.

Consider “GTTGTTACATGGACCGGTTTTCCCGGTAATCCGTATTTGGT (site GTTGTTGCTAC)”, for which the “recombinant UMI read abundance (log10)” value turned out to be 0.0188.

Regarding “GTTGTTACATGGACCGGTTTTCCCGGTAATCCGTATTTGGT (site GTTGTTTCTAC)”, the “recombinant UMI read abundance (log10)” value came to 0.

For the sequence “GTTGTTCCATGGACCGGTTTTCCCGGTAATCCGTATTTGAT (site GTTGTTCCTAA)”, the “recombinant UMI read abundance (log10)” value was 0.0147.

Take “GTTGTTCCATGGACCGGTTTTCCCGGTAATCCGTATTTGAT (site GTTGTTCCTAC)”: the “recombinant UMI read abundance (log10)” value amounted to 0.00806.

In the case of “GTTGTTCCATGGACCGGTTTTCCCGGTAATCCGTATTTGAT (site GTTGTTCCTAG)”, the “recombinant UMI read abundance (log10)” value was determined as 0.

As for “GTTGTTCCATGGACCGGTTTTCCCGGTAATCCGTATTTGAT (site GTTGTTCCTAT)”, the “recombinant UMI read abundance (log10)” value was determined as 0.00518.

Consider “GTTGTTCCATGGACCGGTTTTCCCGGTAATCCGTATTTGCT (site GTTGTTCCTAA)”, for which the “recombinant UMI read abundance (log10)” value amounted to 0.0109.

For the sequence “GTTGTTCCATGGACCGGTTTTCCCGGTAATCCGTATTTGCT (site GTTGTTCCTAC)”, the “recombinant UMI read abundance (log10)” value stood at 0.0126.

Turning to “GTTGTTCCATGGACCGGTTTTCCCGGTAATCCGTATTTGCT (site GTTGTTCCTAG)”, the “recombinant UMI read abundance (log10)” value worked out at 0.

For “GTTGTTCCATGGACCGGTTTTCCCGGTAATCCGTATTTGCT (site GTTGTTCCTAT)”, the “recombinant UMI read abundance (log10)” value was 0.00476.

Consider “GTTGTTCCATGGACCGGTTTTCCCGGTAATCCGTATTTGGC (site GTTGTTCCTAC)”, for which the “recombinant UMI read abundance (log10)” value worked out at 0.00298.

On to “GTTGTTCCATGGACCGGTTTTCCCGGTAATCCGTATTTGGC (site GTTGTTCCTCC)”, for which the “recombinant UMI read abundance (log10)” value stood at 0.0108.

Regarding “GTTGTTCCATGGACCGGTTTTCCCGGTAATCCGTATTTGGC (site GTTGTTCCTGC)”, the “recombinant UMI read abundance (log10)” value was found to be 0.

As to “GTTGTTCCATGGACCGGTTTTCCCGGTAATCCGTATTTGGC (site GTTGTTCCTTC)”, the “recombinant UMI read abundance (log10)” value was found to be 0.0051.

As to “GTTGTTCCATGGACCGGTTTTCCCGGTAATCCGTATTTGGG (site GTTGTTCCTAC)”, the “recombinant UMI read abundance (log10)” value was found to be 0.0139.

Consider “GTTGTTCCATGGACCGGTTTTCCCGGTAATCCGTATTTGGG (site GTTGTTCCTCC)”, for which the “recombinant UMI read abundance (log10)” value was 0.0029.

“GTTGTTCCATGGACCGGTTTTCCCGGTAATCCGTATTTGGG (site GTTGTTCCTGC)”: the “recombinant UMI read abundance (log10)” value came out at 0.

With “GTTGTTCCATGGACCGGTTTTCCCGGTAATCCGTATTTGGG (site GTTGTTCCTTC)”, the “recombinant UMI read abundance (log10)” value is 0.00718.

For the sequence “GTTTAACCATGGACCGGTTTTCCCGGTAATCCGTATTTGGT (site GTTTAACCTAC)”, the “recombinant UMI read abundance (log10)” value is 0.00474.

“GTTTACCCATGGACCGGTTTTCCCGGTAATCCGTATTTGGG (site GTTTACCCTCC)”: the “recombinant UMI read abundance (log10)” value worked out at 0.00501.

Consider “GTTTATTCATGGACCGGTTTTCCCGGTAATCCGTATTTGCT (site GTTTATTCTAG)”, for which the “recombinant UMI read abundance (log10)” value stood at 1.99.

For the sequence “GTTTATTCATGGACCGGTTTTCCCGGTAATCCGTATTTGGT (site GTTTATTCTAC)”, the “recombinant UMI read abundance (log10)” value came out at 1.61.

On to “GTTTCGGCATGGACCGGTTTTCCCGGTAATCCGTATTTGGT (site GTTTCGGCTAC)”, for which the “recombinant UMI read abundance (log10)” value turned out to be 0.282.

Turning to “GTTTGCCCATGGACCGGTTTTCCCGGTAATCCGTATTTGAT (site GATTGCCCTAT)”, the “recombinant UMI read abundance (log10)” value amounted to 0.00963.

Consider “GTTTGCCCATGGACCGGTTTTCCCGGTAATCCGTATTTGAT (site GCTTGCCCTAT)”, for which the “recombinant UMI read abundance (log10)” value is 0.0198.

Take “GTTTGCCCATGGACCGGTTTTCCCGGTAATCCGTATTTGAT (site GGTTGCCCTAT)”: the “recombinant UMI read abundance (log10)” value was 0.018.

With “GTTTGCCCATGGACCGGTTTTCCCGGTAATCCGTATTTGAT (site GTTTGCCCTAT)”, the “recombinant UMI read abundance (log10)” value amounted to 0.0181.

In the case of “GTTTGCGCATGGACCGGTTTTCCCGGTAATCCGTATTTGTC (site GTTTGCGCTGA)”, the “recombinant UMI read abundance (log10)” value came to 1.54.

On to “TAAACAACATGGACCGGTTTTCCCGGTAATCCGTATTTGTA (site TAAACAACTTA)”, for which the “recombinant UMI read abundance (log10)” value was 0.815.

Regarding “TAAACCACATGGACCGGTTTTCCCGGTAATCCGTATTTGAT (site TAAACCACTAT)”, the “recombinant UMI read abundance (log10)” value was 1.3.

Take “TAAAGTCCATGGACCGGTTTTCCCGGTAATCCGTATTTGCA (site TAAAGTCCTTA)”: the “recombinant UMI read abundance (log10)” value was 0.00275.

For “TAAAGTCCATGGACCGGTTTTCCCGGTAATCCGTATTTGCA (site TAAAGTCCTTC)”, the “recombinant UMI read abundance (log10)” value amounted to 0.00901.

Consider “TAAAGTCCATGGACCGGTTTTCCCGGTAATCCGTATTTGCA (site TAAAGTCCTTG)”, for which the “recombinant UMI read abundance (log10)” value turned out to be 1.07.

In the case of “TAAAGTCCATGGACCGGTTTTCCCGGTAATCCGTATTTGCA (site TAAAGTCCTTT)”, the “recombinant UMI read abundance (log10)” value was 0.

On to “TAAAGTCCATGGACCGGTTTTCCCGGTAATCCGTATTTGTG (site TAAAGTCCTAA)”, for which the “recombinant UMI read abundance (log10)” value worked out at 0.00597.

Turning to “TAAAGTCCATGGACCGGTTTTCCCGGTAATCCGTATTTGTG (site TAAAGTCCTCA)”, the “recombinant UMI read abundance (log10)” value is 0.64.

In the case of “TAAAGTCCATGGACCGGTTTTCCCGGTAATCCGTATTTGTG (site TAAAGTCCTGA)”, the “recombinant UMI read abundance (log10)” value stood at 0.

As for “TAAAGTCCATGGACCGGTTTTCCCGGTAATCCGTATTTGTG (site TAAAGTCCTTA)”, the “recombinant UMI read abundance (log10)” value amounted to 0.19.

For “TAAATTTCATGGACCGGTTTTCCCGGTAATCCGTATTTGCC (site TAAATTTCTGG)”, the “recombinant UMI read abundance (log10)” value came out at 0.

With “TAACAATCATGGACCGGTTTTCCCGGTAATCCGTATTTGTC (site TAACAATCTGA)”, the “recombinant UMI read abundance (log10)” value was 2.03.

For the sequence “TAACCTCCATGGACCGGTTTTCCCGGTAATCCGTATTTGAT (site TAACCTCCTAT)”, the “recombinant UMI read abundance (log10)” value worked out at 0.

“TAACGCACATGGACCGGTTTTCCCGGTAATCCGTATTTGTA (site TAACGCACTTA)”: the “recombinant UMI read abundance (log10)” value was determined as 1.61.

For “TAACGTTCATGGACCGGTTTTCCCGGTAATCCGTATTTGCA (site TAACGTTCTTG)”, the “recombinant UMI read abundance (log10)” value is 1.75.

Turning to “TAACTGACATGGACCGGTTTTCCCGGTAATCCGTATTTGAT (site TAACTGACTAT)”, the “recombinant UMI read abundance (log10)” value was 1.54.

Turning to “TAACTGCCATGGACCGGTTTTCCCGGTAATCCGTATTTGTG (site TAACTGCCTCA)”, the “recombinant UMI read abundance (log10)” value was 0.00877.

For the sequence “TAACTTACATGGACCGGTTTTCCCGGTAATCCGTATTTGGC (site TAACTTACTGC)”, the “recombinant UMI read abundance (log10)” value was found to be 1.32.

For the sequence “TAAGAATCATGGACCGGTTTTCCCGGTAATCCGTATTTGCG (site TAAGAATCTCG)”, the “recombinant UMI read abundance (log10)” value is 2.9.

In the case of “TAAGAATCATGGACCGGTTTTCCCGGTAATCCGTATTTGCG (site TACGAATCTCG)”, the “recombinant UMI read abundance (log10)” value was found to be 1.95.

Consider “TAAGAATCATGGACCGGTTTTCCCGGTAATCCGTATTTGCG (site TAGGAATCTCG)”, for which the “recombinant UMI read abundance (log10)” value stood at 2.51.

For “TAAGAATCATGGACCGGTTTTCCCGGTAATCCGTATTTGCG (site TATGAATCTCG)”, the “recombinant UMI read abundance (log10)” value amounted to 1.97.

Consider “TAAGACTCATGGACCGGTTTTCCCGGTAATCCGTATTTGTC (site TAAGACTCTGA)”, for which the “recombinant UMI read abundance (log10)” value was 2.64.

For “TAAGCCGCATGGACCGGTTTTCCCGGTAATCCGTATTTGCA (site GGGTTGCCTGA)”, the “recombinant UMI read abundance (log10)” value came to 0.

For the sequence “TAAGCTGCATGGACCGGTTTTCCCGGTAATCCGTATTTGAG (site TAAGCTGCTCT)”, the “recombinant UMI read abundance (log10)” value turned out to be 1.32.
